Experiments:
Assay in all cases: post-emergence herbicidal activity, greenhouse
Type in all cases: in vivo
[1] = tested on: Barnyardgrass
Procedure, shortened: (§1)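 Plants grown from seed or vegetative propagules in topsoil pans on a greenhouse sand bench, watered from below, were atomizer-sprayed at two to three weeks of age. The spray carried about 0.4% by weight emulsifier. Injury relative to unsprayed control pans was scored approximately two and four weeks after treatment.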

[2] = tested on: Canada Thistle; details: Table II, formulated in anhydrous tetrahydrofuran
Procedure, shortened: as §1

[3] = tested on: Common Lambsquarters
Procedure, shortened: as §1

[4] = tested on: Downy Brome
Procedure, shortened: as §1

[5] = Table II, 2 WAT, 5.6 kg/h, formulated in anhydrous tetrahydrofuran
[6] = Table II, 2 WAT, 11.2 kg/h, formulated in anhydrous tetrahydrofuran
[7] = Table II, 4 WAT, 5.6 kg/h, formulated in anhydrous tetrahydrofuran
[8] = Table II, 4 WAT, 11.2 kg/h, formulated in anhydrous tetrahydrofuran
[9] = Table III, 2 WAT, 1.1 kg/h, formulated in anhydrous tetrahydrofuran
[10] = Table III, 2 WAT, 5.6 kg/h, formulated in anhydrous tetrahydrofuran
[11] = Table III, 2 WAT, .28 kg/h, formulated in anhydrous tetrahydrofuran
[12] = Table III, 4 WAT, 1.1 kg/h, formulated in anhydrous tetrahydrofuran
[13] = Table III, 4 WAT, 5.6 kg/h, formulated in anhydrous tetrahydrofuran
[14] = Table III, 4 WAT, .28 kg/h, formulated in anhydrous tetrahydrofuran

CCOC(=O)CNCP(=O)(O)O[Si](c1ccccc1)(c1ccccc1)C(C)(C)C [Ex. 7, Glycine, N--((([(1,1-Dimethylethyl)Diphenylsilyl]Oxy)Hydroxyphosphinyl)Methyl)-,Ethyl Ester]
Plant Response Index (K) ([1]; Table II, 2 WAT, 5.6 kg/h): 3 (75-99% inhibition)
Plant Response Index (K) [1, 5]: 1 (25-49% inhibition)
Plant Response Index (K) ([1]; Table II, 2 WAT, 11.2 kg/h): 3 (75-99% inhibition)
Plant Response Index (K) [1, 6]: 2 (50-74% inhibition)
Plant Response Index (K) ([1]; Table II, 4 WAT, 5.6 kg/h): 3 (75-99% inhibition)
Plant Response Index (K) [1, 7]: 2 (50-74% inhibition)
Plant Response Index (K) ([1]; Table II, 4 WAT, 11.2 kg/h): 4 (100% inhibition)
Plant Response Index (K) [1, 8]: 3 (75-99% inhibition)
Plant Response Index (K) ([1]; Table III, 2 WAT, 1.1 kg/h): 3 (75-99% inhibition)
Plant Response Index (K) [1, 9]: 2 (50-74% inhibition)
Plant Response Index (K) ([1]; Table III, 2 WAT, 5.6 kg/h): 3 (75-99% inhibition)
Plant Response Index (K) [1, 10]: 3 (75-99% inhibition)
Plant Response Index (K) ([1]; Table III, 2 WAT, .28 kg/h): 2 (50-74% inhibition)
Plant Response Index (K) [1, 11]: 1 (25-49% inhibition)
Plant Response Index (K) ([1]; Table III, 4 WAT, 1.1 kg/h): 3 (75-99% inhibition)
Plant Response Index (K) [1, 12]: 2 (50-74% inhibition)
Plant Response Index (K) ([1]; Table III, 4 WAT, 5.6 kg/h): 3 (75-99% inhibition)
Plant Response Index (K) [1, 13]: 3 (75-99% inhibition)
Plant Response Index (K) ([1]; Table III, 4 WAT, .28 kg/h): 2 (50-74% inhibition)
Plant Response Index (K) [1, 14]: 1 (25-49% inhibition)
Plant Response Index (A) ([2]; 2 WAT, 5.6 kg/h): 1 (25-49% inhibition)
Plant Response Index (A) ([2]; 2 WAT, 11.2 kg/h): 1 (25-49% inhibition)
Plant Response Index (A) ([2]; 4 WAT, 5.6 kg/h): 3 (75-99% inhibition)
Plant Response Index (A) ([2]; 4 WAT, 11.2 kg/h): 3 (75-99% inhibition)
Plant Response Index (E) ([3]; Table II, 2 WAT, 5.6 kg/h): 3 (75-99% inhibition)
Plant Response Index (E) [3, 5]: 3 (75-99% inhibition)
Plant Response Index (E) ([3]; Table II, 2 WAT, 11.2 kg/h): 4 (100% inhibition)
Plant Response Index (E) [3, 6]: 4 (100% inhibition)
Plant Response Index (E) ([3]; Table II, 4 WAT, 5.6 kg/h): 3 (75-99% inhibition)
Plant Response Index (E) [3, 7]: 3 (75-99% inhibition)
Plant Response Index (E) ([3]; Table II, 4 WAT, 11.2 kg/h): 4 (100% inhibition)
Plant Response Index (E) [3, 8]: 4 (100% inhibition)
Plant Response Index (E) ([3]; Table III, 2 WAT, 1.1 kg/h): 4 (100% inhibition)
Plant Response Index (E) [3, 9]: 4 (100% inhibition)
Plant Response Index (E) ([3]; Table III, 2 WAT, 5.6 kg/h): 3 (75-99% inhibition)
Plant Response Index (E) [3, 10]: 4 (100% inhibition)
Plant Response Index (E) ([3]; Table III, 2 WAT, .28 kg/h): 3 (75-99% inhibition)
Plant Response Index (E) [3, 11]: 2 (50-74% inhibition)
Plant Response Index (E) ([3]; Table III, 4 WAT, 1.1 kg/h): 4 (100% inhibition)
Plant Response Index (E) [3, 12]: 4 (100% inhibition)
Plant Response Index (E) ([3]; Table III, 4 WAT, 5.6 kg/h): 3 (75-99% inhibition)
Plant Response Index (E) [3, 13]: 4 (100% inhibition)
Plant Response Index (E) ([3]; Table III, 4 WAT, .28 kg/h): 3 (75-99% inhibition)
Plant Response Index (E) [3, 14]: 3 (75-99% inhibition)
Plant Response Index (J) ([4]; Table II, 2 WAT, 5.6 kg/h): 2 (50-74% inhibition)
Plant Response Index (J) [4, 5]: 1 (25-49% inhibition)
Plant Response Index (J) ([4]; Table II, 2 WAT, 11.2 kg/h): 2 (50-74% inhibition)
Plant Response Index (J) [4, 6]: 1 (25-49% inhibition)
Plant Response Index (J) ([4]; Table II, 4 WAT, 5.6 kg/h): 3 (75-99% inhibition)
Plant Response Index (J) [4, 7]: 1 (25-49% inhibition)
Plant Response Index (J) ([4]; Table II, 4 WAT, 11.2 kg/h): 3 (75-99% inhibition)
Plant Response Index (J) [4, 8]: 1 (25-49% inhibition)
Plant Response Index (J) ([4]; Table III, 2 WAT, 1.1 kg/h): 2 (50-74% inhibition)
Plant Response Index (J) [4, 9]: 1 (25-49% inhibition)
Plant Response Index (J) ([4]; Table III, 2 WAT, 5.6 kg/h): 2 (50-74% inhibition)
Plant Response Index (J) [4, 10]: 2 (50-74% inhibition)
Plant Response Index (J) ([4]; Table III, 2 WAT, .28 kg/h): 1 (25-49% inhibition)
Plant Response Index (J) [4, 11]: 0 (0-24% inhibition)
Plant Response Index (J) ([4]; Table III, 4 WAT, 1.1 kg/h): 2 (50-74% inhibition)
Plant Response Index (J) [4, 12]: 1 (25-49% inhibition)
Plant Response Index (J) ([4]; Table III, 4 WAT, 5.6 kg/h): 2 (50-74% inhibition)
Plant Response Index (J) [4, 13]: 3 (75-99% inhibition)

From patent publication US4471131A, “Novel silyl esters of N-phosphonomethylglycine” (Monsanto Company, priority 1983, dated 1984)
